In article PMC7904827 (Scientific Reports, 2021):
Read-outs that look alike come from different tables or passages of the source. Blank lines part the entries; values can stand above or below the molecule they belong to.

Key:
[1] = design: method as in PMID 29273587; details: cited from earlier work
[2] = system: neonatal ventricular cardiomyocytes (NVCMs); details: same assay; cited from earlier work
[3] = In vivo pharmacokinetic study of GK-667 in rabbits, noncompartmental analysis; design: species or system rabbit
Experimental: GK-667 was freshly dissolved in saline (5 mg/mL) before each administration. New Zealand White male rabbits (n = 6, ∼3.8 kg) received GK-667 (5 mg/kg) administered as a single slow (2 min) intravenous dose bolus to the ear marginal vein. Blood (∼1 mL) was sampled from veins on the contralateral ear at selected time points after drug administration (5 min to 9 h) into BD Vacutainers (BD Biosciences, Plymouth, UK) containing lithium heparin. Collected blood samples were immediately centrifuged (2 min, 3000 rpm, 4 °C), and plasma samples were harvested directly.
Plasma samples taken 0 to 20 min after GK-667 administration were immediately processed by the addition of formic acid and precipitation with ice-cold methanol. The supernatants were then analyzed for all analytes, including the intact prodrug. This was essential to ensure the appropriate determination of highly labile GK-667 at the first sampling intervals, and the whole procedure was validated for this purpose. […] Thus, all following plasma samples were immediately shock-frozen in liquid nitrogen and stored at -80 °C until analysis.
For drug administration and blood sampling, light anesthesia was induced in rabbits with a mixture of ketamine (25 mg/kg, i.m.) and midazolam (2.5 mg/kg, i.m.); sedation was then maintained with midazolam when needed. The blood withdrawn from the animals was compensated with an appropriate volume of sterile saline. All in vivo experiments and procedures were approved and supervised by the Animal Welfare Committee of the Faculty of Medicine in Hradec Kralove (Charles University), and the experiments were performed in compliance with the ARRIVE guidelines.
Standard noncompartmental analysis was performed using Kinetica software (version 4.0, Thermo Fisher Scientific Inc., USA). The population parameter estimation for nonlinear mixed effect models was conducted using Monolix version 2019R2 software (Antony, France: Lixoft SAS, 2019, http://lixoft.com/products/monolix/). The stochastic approximation expectation maximization (SAEM) algorithm coupled with Markov Chain Monte Carlo (MCMC) without the use of approximations (linearization) was used for the estimation of the likelihood. For evaluation of the goodness-of-fit, the following plots were assessed: observed versus individual predicted concentrations, weighted residuals versus time and weighted residuals versus predictions. Individual parameter values were obtained as empirical Bayes estimates. A visual predictive check with 1000 simulated data sets was performed.

[4] = Freeze-thaw and storage stability in plasma at -80 °C; format: in vitro ADME, rabbit; details: for % of initial concentration, 1st freeze-thaw cycle / % of initial concentration, 2nd freeze-thaw cycle: plasma, -80 °C
Experimental: ICRF-193 and ICRF-193met in plasma, respectively. Unweighted and weighted (1/x and 1/x2) linear regression was applied to obtain the best fitting calibration model. […]
(§1) Stability of the analytes was examined at low and high concentrations. Process s tability (n=3) in plasma was tested for 20 min at either laboratory temperature (23 °C) or on ice (4 °C, only for GK-667). Post-preparation stability was examined for 8 to 10 h in an autosampler (8 °C, n=3) for all treated matrices. […]
plasma was tested at -80 °C and the freezing cycle was repeated twice (n=3). […]

[5] = Population pharmacokinetic analysis in rabbits; format: in vivo, rabbit; details: population median
Excerpt: All model parameters of ICRF-193 and ICRF-193met could not be simultaneously estimated by stochastic approximation expectation maximization (SAEM) in one step. […] A maximum likelihood estimation was used to calculate the parameters CLmet, CLother, V4, and CLICRF-193met. For the remaining parameters of the parent-metabolite model (Fig. S5), a maximum a posteriori (MAP) estimation was adopted. The residual error in the population kinetic analysis was best described with a proportional model.
Standard noncompartmental analysis was performed using Kinetica software (version 4.0, Thermo Fisher Scientific Inc., USA). The population parameter estimation for nonlinear mixed effect models was conducted using Monolix version 2019R2 software (Antony, France: Lixoft SAS, 2019, http://lixoft.com/products/monolix/). […] For evaluation of the goodness-of-fit, the following plots were assessed: observed versus individual predicted concentrations, weighted residuals versus time and weighted residuals versus predictions. […]
Hydrolysis of GK-667 is very fast and the parent compound was essentially completely cleared from plasma within 10 min after injection. ICRF-193 was quantitatively dominating at the first sampling interval (5 min). […]

[6] = Process stability in untreated plasma; format: in vitro ADME, rabbit; details: 23 °C, 20 min
Experimental: Linearity was tested within the concentration range of 0.2 – 100 μM for all compounds in DMEM, the buffer and plasma and 10-100 pmol/106cells in NVCMs (method I). For method II, the concentration ranges 0.01-15 μM and 0.01-1 μM were used for determination of ICRF-193 and ICRF-193met in plasma, respectively. Unweighted and weighted (1/x and 1/x2) linear regression was applied to obtain the best fitting calibration model. […]
as §1

[7] = Post-preparation stability of the extracted analytes in autosampler (8 °C); format: physicochemical
Experimental: Linearity was tested within the concentration range of 0.2 – 100 μM for all compounds in DMEM, the buffer and plasma and 10-100 pmol/106cells in NVCMs (method I). For […]
Unweighted and weighted (1/x and 1/x2) linear regression was applied to obtain the best fitting calibration model.
Accuracy and precision were calculated at 4 levels (LLOQ, low, medium and high concentrations). Five quality control (QC) samples were used for all concentration levels. […]
as §1
plasma was tested at -80 °C and the freezing cycle was repeated twice (n=3). The buffer, DMEM, NVCMs and plasma samples containing GK -667 from in vitro studies and from first intervals of pharmacokinetic study (up to 20 min) w ere treated and analyzed immediately after […]

[8] = Approximate solubility in distilled water at room temperature; format: physicochemical; details: reason why it was not administered separately
Experimental: The syntheses of the target prodrugs were performed according to a known three-step procedure with some modifications. Target prodrugs GK-667, GK-678 and GK-691 were obtained in 34%, 37% and 17% overall yields, respectively. […] The resulting solutions remained physically stable for at least two hours at room temperature.

[9] = DEX in the same species (rabbit)
[10] = male, New Zealand White, rabbit, plasma, iv, rabbits n = 6, GK-667 5 mg/kg i.v., NCA
[11] = rabbits n = 6, GK-667 5 mg/kg i.v., NCA

Compound: C[C@@H](CN(CC(N)=O)CC(=O)O)N(CC(N)=O)CC(=O)O [ADR-925]
- half-life of elimination ([1]; ADR-925 formed in vivo from DEX, rabbit): 2.9 h

Compound: C[C@@H](CN1CC(=O)NC(=O)C1)N1CC(=O)NC(=O)C1 [DEX, dexrazoxane]
- concentrations with significant protective effects against DAU toxicity [2]: ≥ 10 µM
- clearance [1, 9]: 5 mL/min/kg
- elimination half-life [1, 9]: 2.0 h

- half-life ([3]; male, New Zealand White, rabbit, plasma, iv, 5 mg/kg): 1.4 h
- Cmax ([3]; male, New Zealand White, rabbit, plasma, iv, 5 mg/kg, rabbits n = 6, GK-667 5 mg/kg i.v., NCA): 800 nM
- AUC [3, 10]: 2.7 µM·h
- AUC(0-t) [3, 10]: 2.6 µM·h
- MRT [3, 10]: 2.6 h
- k el ([3]; male, New Zealand White, rabbit, plasma, iv, rabbits n = 6, GK-667 5 mg/kg i.v., NCA, read-out: λz (converted)): 0.000144 s⁻¹
- Tmax ([3]; male, New Zealand White, rabbit, plasma, iv, rabbits, GK-667 5 mg/kg i.v., read-out: median tmax): 2 h
- AUMClast [3, 11]: 6.5 h^2∙µM
- AUMCtot [3, 11]: 7.1 h^2∙µM
- Cmax [3, 11]: 830 nM
- Tmax [3, 11]: 2 h
- degradation in plasma on storage ([4]; -80 °C for 1 month): no significant degradation
- % of initial concentration, 1st freeze-thaw cycle ([4]; initial concentration 0.05 µM): 94.1 ± 4.3%
- % of initial concentration, 2nd freeze-thaw cycle ([4]; initial concentration 0.05 µM): 91.7 ± 0.7%
- % of initial concentration, 1st freeze-thaw cycle ([4]; initial concentration 1.00 µM): 93.9 ± 5.7%
- % of initial concentration, 2nd freeze-thaw cycle ([4]; initial concentration 1.00 µM): 91.4 ± 7.0%
- V4 ([5]; distribution volume for ICRF-193met): 0.31 L/kg
- CLICRF-193met ([5]; total clearance of ICRF-193met): 2.83 mL/min/kg
- stability in untreated plasma at laboratory temperature [6]: stable
- percentage of initial concentration in autosampler ([7]; extracted DMEM, 100 µM, 0 h): 101.5%
- percentage of initial concentration in autosampler ([7]; extracted DMEM, 100 µM, 8 h): 102.1%
- percentage of initial concentration in autosampler ([7]; extracted DMEM, 100 µM, 10 h): 102.7%
- percentage of initial concentration in autosampler ([7]; extracted NVCMs, 100 pmol/106 cells, 0 h): 100.0%
- percentage of initial concentration in autosampler ([7]; extracted NVCMs, 100 pmol/106 cells, 8 h): 97.7%
- percentage of initial concentration in autosampler ([7]; extracted NVCMs, 100 pmol/106 cells, 10 h): 95.0%
- percentage of initial concentration in autosampler ([7]; extracted buffer, 100 µM, 0 h): 102.3%
- percentage of initial concentration in autosampler ([7]; extracted buffer, 100 µM, 8 h): 102.0%
- percentage of initial concentration in autosampler ([7]; extracted plasma, 100 µM, 0 h): 100.4%
- percentage of initial concentration in autosampler ([7]; extracted plasma, 100 µM, 8 h): 96.5%
- percentage of initial concentration in autosampler ([7]; extracted plasma, 100 µM, 10 h): 99.1%
- solubility (in words) [8]: poor solubility
Compound: C[C@H]([C@H](C)N(CC(N)=O)CC(=O)O)N(CC(N)=O)CC(=O)O [ICRF-193met]
